Measured values taken from patent US20050228019A1, “Enhancement of ampakine-Induced facilitation of synaptic responses by cholinesterase inhibitors” (priority 2004, published 2005).
Several values for one entry are separate records, joined by “and”; a condition that tells them apart may be missing. Equal entries are not always repeated. Entries after “also recorded” stand apart in the source; their conditions may differ.

How the values were obtained:
[1] = test system: lateral perforant path EPSPs in hippocampal slices; assay: Lateral perforant path EPSPs in hippocampal slices; format: cell-based, Sprague-Dawley rats
Method: Hippocamlpal slice preparation: Hippocampal slices were prepared from male Sprague-Dawley rats, approximately 4-6 weeks of age. Rats were anesthetized with halothane and then sacrificed via decapitation. The brain was quickly removed and placed in icy, oxygenated artificial cerebrospinal fluid (ACSF) of the following composition for dissection (in mM): 124 NaCl, 3 KCl 1.25 KH2PO4, 5 MgSO4, 3.4 CaCl2, 10 D-glucose, 26 NaHCO3. A tissue block containing the hippocampus and surrounding tissue was prepared and glued to the stage of a vibrating tissue slicer (Leica VT1000; Bannockburn, Ill.). Slices were cut roughly perpendicular to the longitudinal axis of the hippocampus at a thickness of 350 μm. Slices were then immediately transferred to an interface recording chamber containing ACSF with the same constituents as described above except that the concentration of MgSO4 was lowered to 2.5 mM. Recording commenced after a recovery period that was ≧1 hour.
In vitro recording: Slices in the interface chamber were maintained at 32±1° C. and continuously perfused with oxygenated recording ACSF at a rate of 60 ml/hr. Additionally, warmed and humidified 95% O2/5% CO2 was blown into the chamber from above. The lateral perforant path was stimulated with twisted nichrome wire (65 μm) in the outer molecular layer of the dentate gyrus. A chloride-coated silver wire was placed in a single glass pipette filled with 2 M NaCl (˜5 MΩ resistance) for recording of field potentials. The recording electrode was also placed in the outer molecular layer of the dentate gyrus to sample the perforant path synapses. Stimulation intensity was adjusted to elicit responses that were typically 1-2 mV in amplitude and ≦50% of the maximal monophasic response. Evoked responses were recorded at 10 kHz using a differential AC amplifier (A-M Systems Model 1700; Carlsborg, Wash.). Baseline responses were monitored every 20 seconds for a minimum of 30 minutes, depending on the length of time necessary to achieve stability.
Drug application: AChE inhibitors enhance transmission at cholinergic synapses by blocking the enzyme that degrades the released transmitter acetylcholine. This causes acetylcholine to remain at relatively high concentrations for a longer period within the synapse and thereby exert a greater than normal effect on acetylcholine receptors. This greater than normal action on acetylcholine receptors can be partially mimicked by applying a compound that directly stimulates the receptors to a degree that is greater than that produced by normally released acetylcholine. […] The effect of each of these treatments on amplitude size and slope of the descending phase of the response waveform was continuously recorded online throughout the entirety of the experiment.

[2] = test system: perforant path evoked responses in the dentate gyrus; assay: Perforant path evoked responses in the dentate gyrus of awake rats; format: in vivo, Long-Evans rats
Method: (§1) Chronic recording preparation: Adult male Long-Evans rats with recording and stimulating electrodes chronically implanted into different areas of the brain known to subserve memory were used. The electrodes were stereotaxically inserted under pentobarbital anesthesia (65 mg/kg), using procedures essentially as described in earlier work (Stäubli and Xu, Journal of Neuroscience 15: 2445-2452, 1995; Stäubli and Scafidi, Journal of Neuroscience 17: 4820-4828, 1997). Briefly, monopolar stimulating electrodes (125 μm) were placed into the perforant path projections to hippocampal dentate gyrus and into the lateral olfactory tract projections to olfactory cortex. Following these steps, the leads of the electrodes were connected to a headstage that is permanently affixed to the rat's skull.
(§2) The animals were allowed approximately 10 days for recovery before being acclimated to a chronic recording cage (30×30×58 cm) and the attachment of a recording lead to their headstage. Biphasic stimulation pulses were provided by a digital stimulator that allows precise control of current intensity and pulse duration. […] The evoked responses were monitored on a storage oscilloscope and digitized at 10 kHz. The peak amplitude, half-width and area of each response were measured on-line and stored on disk for off-line analysis. […]

[3] = test system: monosynaptic responses (field EPSPs) known to be mediated by AMPA receptors; assay: Chronic recording of evoked field EPSPs in freely moving rats (brain area not specified); format: in vivo, Long-Evans rats; conditions: CX717 10 mg/kg ip alone
Method: as §1, §2

[4] = test system: lateral olfactory tract (LOT) evoked responses; assay: Lateral olfactory tract (LOT) evoked responses in awake rats; format: in vivo, Long-Evans rats
Method: as §1
The animals were allowed approximately 10 days for recovery before being acclimated to a chronic recording cage (30×30×58 cm) and the attachment of a recording lead to their headstage. Biphasic stimulation pulses were provided by a digital stimulator that allows precise control of current intensity and pulse duration. Current intensity (10-80 μA) and pulse width (100-150 μsec) were adjusted to produce an evoked field excitatory postsynaptic potential (evoked fEPSP) that is 50-60% of the maximum amplitude of the population spike-free response which typically ranges between 3 and 7 mV. Recording signals were pre-amplified 10× via a FET operational amplifier built into the recording lead and fed into a second stage amplifier set to a gain of 10, with a band-pass of 1 Hz to 5 kHz. The evoked responses were monitored on a storage oscilloscope and digitized at 10 kHz. The peak amplitude, half-width and area of each response were measured on-line and stored on disk for off-line analysis. Baseline evoked EPSPs were tested at 20 sec intervals for a minimum of 30 to 45 min, or until stable (<10% variability in amplitude). The animal was free to move around the cage throughout the experiment, but was not allowed to fall asleep.
Drug Testing: Once baseline stability was established over at least 30 min, the animal was given an intraperitoneal injection of 1) Ampakine compound alone (e.g., CX717 at 10 mg/kg), or 2) acetylcholinesterase (AChE) inhibitor alone (e.g., physostigmine at 0.1 mg/kg, tacrin at 1 mg/kg, galantamine at 1 mg/kg or donezepil at 1.5 mg/kg) or 3) Ampakine compound plus AChE inhibitor combined, both administered at the same time and at the same dose as when given alone. Each rat received each of these three treatments, but only one treatment was given per day, with several days separating successive treatments. The effect of each of these treatments on amplitude size, halfwidth and area of the field EPSP was continuously recorded for several hours after injection.

[5] = CX717 10 mg/kg co-administered ip with physostigmine 0.1 mg/kg

Row | SMILES | response amplitude ([1]; CX717 40 μM alone, 30 min infusion, last 10 minutes of drug infusion) | increase in response size relative to CX717 alone ([1]; CX717 40 μM in the presence of 0.5 μM CCh) | perforant path effect relative to CX717 alone ([2]; CX717 10 mg/kg co-injected ip with physostigmine 0.1 mg/kg) | increase in perforant path evoked responses on co-administration ([2]; CX717 with galantamine 1 mg/kg, data not shown) | increase in amplitude of field EPSP [3] | LOT effect relative to CX717 alone [4, 5] | increase in LOT response amplitude above baseline [4, 5] | LOT effect relative to CX717 alone ([4]; CX717 10 mg/kg co-injected ip with Aricept 1.5 mg/kg) | LOT effect relative to CX717 alone ([4]; CX717 10 mg/kg co-injected ip with tacrine 1 mg/kg) | increase in LOT response amplitude ([4]; CX717 10 mg/kg ip alone, 10 mg/kg) | EPSP amplitude ([1]; CCh 0.5 μM alone, 20-30 minutes after the start of infusion) | effect on lateral perforant path EPSPs (amplitude or slope) ([1]; CCh 0.5 μM by itself)
1 | O=C(c1ccc2nonc2c1)N1CCOCC1 [CX717] | 103.5±1.0 % of baseline | several fold greater; also recorded: significantly greater than those observed in the absence of CCh | significantly higher than the effects of CX717 alone | Effects of this kind were also obtained | 5+1% | several times greater than the effects it produced on its own; also recorded: approximately three-fold greater | 20-30% | several times greater than the effects it produced on its own; also recorded: approximately two-fold greater | several times greater than the effects it produced on its own; also recorded: more than two times greater | ~5% and < 10% | – | –
2 | C[N+](C)(C)CCOC(N)=O [CCh, carbachol] | – | – | – | – | – | – | – | – | – | – | 99.8±2.9 % of baseline | no discernible effects; also recorded: did not detectably affect synaptic transmission; also recorded: did not affect the amplitude or slope of evoked responses
